Source: US20200253211A1, “PHOTODYNAMIC INHIBITION OF MICROBIAL PATHOGENS IN PLANTS” (SUNCOR ENERGY INC, priority 2017, published 2020)

Columns and labels:
Assay type in all cases: cell-based
[1] = tested on: Botrytis cinerea mycelia; experiment: Photodynamic inhibition of Botrytis cinerea mycelia, percentage of dead samples after 7 days on agar
Method: (§1) In the experiments, Botrytis cinerea mycelia were grown in liquid medium for 48 hours. Small spheres of the mycelia (average diameter 2 mm) were incubated for 100 minutes with Mg-Chlorophyllin with or without 5 mM Disodium-EDTA. Samples were illuminated with 395 nm (fluence 106.6 J cm^−2) for 120 minutes and the radial growth of mycelial patches after 7 days on agar medium was measured. A sample was considered dead, if there was no growth observable after 7 days on agar plates.
as §1, with “mM EDTA (calcium or disodium).” for “mM Disodium-EDTA.”, “120 min” for “120 minutes”
as §1, with “without Baypure DS100” for “without 5 mM Disodium-EDTA.”, “120 min” for “120 minutes”
The protocol for the PDI of B. cinerea was as follows (for experiments 3 and 4 described above): • Grow B. cinerea on malt-peptone-agar for some days. • Transfer spores of B. cinerea to liquid malt-peptone medium. • Incubate for 2-3 days at 26° C. under constant agitation. • Transfer the grown mycelia (spheres of mycelia, approximately 2 mm diameter) to 24 well plates. • Add 500 μl of the PS to the well. • Incubate under agitation for 100 minutes in the dark. • Illuminate under agitation for 120 minutes. • Transfer the treated mycelia to malt-peptone-agar plates and incubate for one week at room temperature. • Evaluate by counting of dead samples.

[2] = tested on: Sclerotinia homoeocarpa; experiment: Radial growth of dollar spot fungus on amended Potato Dextrose Agar, dark vs light; conditions: rate 31 μM
[3] = tested on: Xanthomonas axonopodis; experiment: Xanthomonas axonopodis count after photodynamic treatment in liquid medium; conditions: Mg-Chlorophyllin alone; same protocol as Example 1
Method: Xanthomonas axonopodis are bacterial pathogens that cause citrus canker. Citrus canker is a highly contagious plant disease than can destroy an entire crop field. […] Positive results were obtained at several chlorophyllin concentrations and exposure times.
Xanthomonas were grown in liquid medium. Samples were incubated for 30 mins or 5 mins with Mg-Chlorophyllin and with Disodium-EDTA for 30 mins, and then illuminated with 395 nm (fluence 26.6 J cm−2) for 30 mins. CFU of the bacteria was counted on the plates.

[4] = tested on: E. Coli K-12; experiment: E. Coli assay under LED lamps, colony count; conditions: light
Method: Regarding the E. Coli assay tests in the above examples, the following procedure was used: • 1. E. Coli K-12 inoculated in 5 mL TSB and placed in a shaking incubator overnight. • 2. Dilute culture in 500 mL PBS (˜10̂8 CFU/mL) and placed in shaking incubator for 30 minutes at […]. • 3.15 mL samples created using 12 mL culture and a mixture of PBS buffer and sample compounds. • 4. Placed under LED lamps for 2 hours (40 W/m^2). • 5. Samples diluted to 10^−4 and culture controls diluted to 10^−5 for plating through series dilutions. • 6. 0.1 mL plated of each sample in triplicates on TSA base (10^−3 and 10^−4 for samples. 10^−4 and 10^−5 for controls). • 7. Incubated overnight at 37° C. • 8. Colonies counted next morning and recorded.

C=Cc1c(C)c2cc3nc(c(CC(=O)[O-])c4[n-]c(cc5nc(cc1[n-]2)C(C)=C5CC)c(C)c4C(=O)[O-])C(CCC(=O)[O-])C3C.[Mg+2].[Na+].[Na+].[Na+] (centres unmarked) [Mg-Chlorophyllin, Mg-chlorophyllin]
dead % ([1]; Table 3, Mg-Chlorophyllin 10 μM alone, in light): 0% | dead % ([1]; Table 3, Mg-Chlorophyllin 100 μM alone, in light): 0% | dead % ([1]; Table 4, Mg-Chlorophyllin 100 μM alone, in light): 0% | Percentage of dead samples [%] ([1]; Table 27, MgChln 100 μM, with light): 0% | % Inhibition ([2]; Table 7A, dark): 24.1% | Mean Radial Growth ([2]; Table 7A, dark): 11.2 mm | % Inhibition ([2]; Table 7B, light): 51.0% | Mean Radial Growth ([2]; Table 7B, light): 6.6 mm | % Inhibition ([2]; Table 14A, dark): 32.5% | Mean Radial Growth ([2]; Table 14A, dark): 9.1 mm | % Inhibition ([2]; Table 14B, light): 59.2% | Mean Radial Growth ([2]; Table 14B, light): 5.3 mm | % Inhibition ([2]; Table 15A, dark): 32.5% | Mean Radial Growth ([2]; Table 15A, dark): 9.1 mm | % Inhibition ([2]; Table 15B, light): 59.2% | Mean Radial Growth ([2]; Table 15B, light): 5.3 mm | control of Xanthomonas axonopodis [3]: little effect | % Inactivation ([4]; Table 10, 1 μM MgChln): 95.0% | CFU/mL ([4]; Table 10, 1 μM MgChln): 2.73E+05 CFU/mL | LogCFU/mL ([4]; Table 10, 1 μM MgChln): 5.44 LogCFU/mL | % Inactivation ([4]; Table 10, 10 μM MgChln): 97.6% | CFU/mL ([4]; Table 10, 10 μM MgChln): 1.30E+05 CFU/mL | LogCFU/mL ([4]; Table 10, 10 μM MgChln): 5.11 LogCFU/mL | % Inactivation ([4]; Table 11, 1 μM MgChln): 86.1% | CFU/mL ([4]; Table 11, 1 μM MgChln): 9.07E+05 CFU/mL | LogCFU/mL ([4]; Table 11, 1 μM MgChln): 5.96 LogCFU/mL | % Inactivation ([4]; Table 12, 1 μM MgChln): 91.3% | CFU/mL ([4]; Table 12, 1 μM MgChln): 6.13E+05 CFU/mL | LogCFU/mL ([4]; Table 12, 1 μM MgChln): 5.79 LogCFU/mL

O=C(O)CN(CCN(CC(=O)O)CC(=O)O)CC(=O)O [EDTA, disodium EDTA]
dead % ([1]; Table 3, EDTA 5 mM alone, in dark): 0% | dead % ([1]; Table 3, EDTA 5 mM alone, with light): 0% | dead % ([1]; Table 4, EDTA-Na 5 mM alone, with light): 0%
